From publication PMC12296492 (Cell Reports Methods, 2025)

Experiments:
[1] = biological target: human STING ligand-binding domain (hSTING-LBD) (Homo sapiens, UniProt Q86WV6); assay: BLI Kd
[2] = biological target: T1, mouse STING ligand-binding domain (mSTING-LBD) (Mus musculus, UniProt Q3TBT3); assay: BLI
T1 sequence (Q3TBT3 146-370): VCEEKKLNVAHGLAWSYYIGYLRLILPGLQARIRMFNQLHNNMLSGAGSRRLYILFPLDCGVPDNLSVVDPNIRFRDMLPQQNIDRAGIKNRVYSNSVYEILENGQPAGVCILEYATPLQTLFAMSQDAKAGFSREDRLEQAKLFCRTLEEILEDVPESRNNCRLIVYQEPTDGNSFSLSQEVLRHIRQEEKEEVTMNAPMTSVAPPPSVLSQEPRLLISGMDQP

Sequence of human STING ligand-binding domain (hSTING-LBD) (Q86WV6 155-343): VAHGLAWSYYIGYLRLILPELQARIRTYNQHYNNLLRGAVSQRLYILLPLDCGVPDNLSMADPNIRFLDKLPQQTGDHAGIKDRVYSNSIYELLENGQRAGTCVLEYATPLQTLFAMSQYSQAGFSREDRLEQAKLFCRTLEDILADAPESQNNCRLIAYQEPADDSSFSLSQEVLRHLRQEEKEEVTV

- Kd [1]: 12.9 ± 0.4 µM
- Kd [2]: 17 ± 0.5 µM
Structure (SMILES): C=CCc1ccc(O)c(-c2ccc(O)c(CC=C)c2)c1 [honokiol]
